System: cellules HL-60
Conditions: hydroxyurée alone, 150 uM

Question: For `NC(=O)NO` [hydroxyurée], which “inhibition de la croissance des cellules HL-60” value is on record?
Answer: Its value is “inhibition suffisante de la croissance des cellules HL-60”.
